Consider 14 compounds from patent US20240228490A1, “HETEROCYCLIC DERIVATIVE INHIBITOR AND PREPARATION METHOD THEREFOR AND APPLICATION THEREOF” (Shanghai Hansoh Biomedical Co., Ltd., priority 2021, published 2024).

Where two headings read alike, the source gives them in different places.

Data set [1] can be described thus: PK part of PK/PD study in MDA-MB-436 subcutaneous xenograft model: plasma and tumor concentration. The format is in vivo, BALB/c nude mice. The following applies: female, BALB/c nude, mouse, single oral 0.3 mg/kg. The text has this:
• a. […] Cells were passaged once every three days. […] The resulting suspension was placed in an ice box for later use.
• a. […] During the inoculation, the cell suspension was mixed well. […] The nude mouse was bound with the left hand. […] Inoculation started after 30 seconds. • d.
• a. Grouping: According to the growth of the tumor, when the tumor grew to a volume of 300-500 mm^3, tumor-bearing mice were selected according to the experimental design and randomly grouped (3 mice per each time point) to start the PK/PD test. • b. Fasting: All tumor-bearing mice were fasted (with free access to water) overnight (fasting >8 hours) before the administration. • c. Administration: Except for the blank control group, a single oral administration was carried out according to the time of the experimental design, and the administration volume was 10 mL/kg. • d. Sample collection: The mice were euthanized by CO2 asphyxiation according to the time of the experimental design, and the samples were collected. One plasma sample and three tumor tissue samples were collected from each animal.
Plasma collection: After the mouse was euthanized, blood was collected from the heart. The collected blood was added to a centrifuge tube containing EDTA-K2. The tube was manually inverted 3 to 4 times, placed on ice, and centrifuged at 8000 rpm at 4° C. for 5 minutes. 100 μL of the centrifuged plasma was transferred to a new labeled centrifuge tube. One aliquot of plasma was quickly freezed on dry ice, and stored in a refrigerator at −80±10° C. for PK test.
Tumor tissue collection: After the blood collection, the tumor tissue was collected. The collected tumor tissue was divided into 3 aliquots (˜0.1 g each), placed into labeled 2 mL centrifuge tubes, and stored in a refrigerator at −80±10° C. for PK or PD test.
a. Sample Process: • 1) 4 parts by weight of 20% methanol in water was added to 1 part by weight of the tumor tissue sample, and homogenized at 40 Hz for 400 seconds.

For data set [2], the system named is BRCA2 Knockout DLD-1 cells. The data set is described as follows: Inhibition of proliferation of BRCA2 Knockout DLD-1 cells (CellTiter-Glo). The format is cell-based. The conditions noted are these: Homo sapiens, about 144 hours incubation. As for the experimental part:
BRCA2 Knockout DLD-1 cells were cultured using RPMI1640 culture medium containing 10% FBS to an appropriate cell density. The cells were collected, and adjusted to an appropriate cell concentration using the complete culture medium. The cell suspension was spread on a 96-well plate (90 μL per well), and placed in a 37° C., 5% CO2 incubator overnight. Compound solutions of different concentrations were formulated using DMSO and culture medium, and vehicle control was set up. The compound solutions were added to the 96-well plate (10 μL per well), and the plate was incubated in a 37° C., 5% CO2 incubator for about 144 hours. CellTiter-Glo solution was added, and the plate was shaken to mix evenly, and incubated in the dark for 10 to 30 minutes. The values were measured with a Synergy H1 or Envision microplate reader.
The inhibition rate was calculated using the luminescence signal value. The concentration and inhibition rate were fitted to a nonlinear regression curve using Graphpad Prism software to obtain the IC50 value.

In the next data set the target is PARP1 enzyme (Homo sapiens (Human), UniProt P09874). The data set is described as follows: Inhibitory activity on PARP1 enzyme (chemiluminescence). The format is biochemical. As for the experimental part:
The inhibitory activity of the compounds on PARP1 enzyme was determined by the chemiluminescence method in the experiment. The experiment was carried out in a 384-well plate. Coating histones in a 384-well plate: 5×histone solution was diluted 5 folds with PBS, added to a 384-well ELISA plate (25 μL per well), and incubated at 4° C. overnight. […] A mixture of PARP reaction biotin-labeled substrate, activated DNA, 10×PARP buffer and water was added (12.5 μL per well). Compound solutions with different concentrations were formulated using the experimental buffer (10% DMSO aqueous solution containing 1.25 mM DTT). The final detection concentration started from 100 nM, with 3-fold dilution and 8 concentrations. The compound solutions were added to the reaction wells of the 384-well plate (2.5 μL per well). 2.5 μL of 10% DMSO aqueous solution containing 1.25 mM DTT was added to the positive control well and blank well (2.5 μL per well). […] The plate was centrifuged at 1000 rpm for 1 minute, and reacted at room temperature for 60 minutes. […] Streptavidin-HRP solution diluted 50 folds with Blocking buffer 3 was added (25 μL per well), and the plate was incubated at room temperature for 30 minutes. […] The luminescence reaction solution obtained by mixing ECL substrate A and ELISA ECL substrate B (1:1) was added (50 μL per well) for reaction. The chemiluminescence values were measured immediately with a BioTek Synergy H1 or Envision instrument.
The chemiluminescence values were measured with a BioTek Synergy H1 or Envision instrument. The inhibition rate was calculated, and the concentration and inhibition rate were fitted to a nonlinear regression curve using Graphpad Prism software to obtain the IC50 value.

[3] abbreviates: plasma, read-out: Mean plasma concentration.
Where [4] appears, read: tumor tissue, read-out: Mean tumor tissue concentration.

Chain of PARP1 enzyme (P09874 whole entry): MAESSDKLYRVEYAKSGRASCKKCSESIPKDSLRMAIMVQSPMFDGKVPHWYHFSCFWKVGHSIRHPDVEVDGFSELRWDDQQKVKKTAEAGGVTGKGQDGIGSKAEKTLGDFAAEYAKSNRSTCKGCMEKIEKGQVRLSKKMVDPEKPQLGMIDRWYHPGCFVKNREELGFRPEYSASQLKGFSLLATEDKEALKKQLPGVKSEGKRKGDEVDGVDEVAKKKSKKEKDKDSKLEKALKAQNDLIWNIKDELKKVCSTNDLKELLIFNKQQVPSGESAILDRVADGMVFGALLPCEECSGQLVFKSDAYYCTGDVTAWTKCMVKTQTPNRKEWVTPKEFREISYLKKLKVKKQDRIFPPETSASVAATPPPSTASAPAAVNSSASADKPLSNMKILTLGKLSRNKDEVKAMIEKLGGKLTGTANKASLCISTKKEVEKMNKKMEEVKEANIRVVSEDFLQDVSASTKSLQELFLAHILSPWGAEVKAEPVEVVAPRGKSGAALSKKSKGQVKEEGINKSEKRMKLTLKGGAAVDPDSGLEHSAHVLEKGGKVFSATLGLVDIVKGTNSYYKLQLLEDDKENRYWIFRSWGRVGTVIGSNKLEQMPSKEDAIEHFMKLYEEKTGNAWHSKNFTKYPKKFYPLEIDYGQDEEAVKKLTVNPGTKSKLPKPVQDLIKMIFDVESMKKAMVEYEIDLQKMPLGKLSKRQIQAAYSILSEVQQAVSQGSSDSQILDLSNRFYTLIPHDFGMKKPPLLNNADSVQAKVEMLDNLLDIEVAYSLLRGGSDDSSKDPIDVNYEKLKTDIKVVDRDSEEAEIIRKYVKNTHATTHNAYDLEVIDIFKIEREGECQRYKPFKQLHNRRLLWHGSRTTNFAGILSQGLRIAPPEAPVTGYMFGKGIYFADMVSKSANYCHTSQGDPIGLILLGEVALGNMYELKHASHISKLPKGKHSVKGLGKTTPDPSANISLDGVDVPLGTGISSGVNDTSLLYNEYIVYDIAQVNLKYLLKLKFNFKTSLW

For the compound `CCc1cc2ncc(CN3CCN(c4ccc(C(=O)NC)nc4)CC3)cc2[nH]c1=O` [AZD5305, reference compound], in data set [1] (setting [3]), the concentration at 1 h turned out to be 1460 ng/mL, the concentration at 2 h was 1370 ng/mL, the concentration at 4 h is 1120 ng/mL and the concentration at 6 h worked out at 713 ng/mL. In addition, in data set [1] (setting [3]), the concentration at 8 h came to 584 ng/mL, the concentration at 16 h worked out at 252 ng/mL, the concentration at 24 h amounted to 102 ng/mL and the concentration at 32 h amounted to 41 ng/mL. In addition, in data set [1] (setting [3]), the concentration at 48 h came to 10 ng/mL and the concentration at 72 h amounted to 6 ng/mL. For the same compound, in data set [1] (setting [4]), the concentration at 1 h amounted to 41 ng/g, the concentration at 2 h amounted to 100 ng/g, the concentration at 4 h turned out to be 131 ng/g and the concentration at 6 h amounted to 117 ng/g. In addition, in data set [1] (setting [4]), the concentration at 8 h stood at 95 ng/g, the concentration at 16 h amounted to 94 ng/g, the concentration at 24 h was 61 ng/g and the concentration at 32 h stood at 59 ng/g. In data set [1] (setting [4]), the concentration at 48 h is 44 ng/g and the concentration at 72 h came to 31 ng/g.
Regarding `CCc1cc2ncc(CN3CC=C(c4ccc(C(=O)NOC)nc4)CC3)cc2[nH]c1=O` [Example 30, 1′-((7-Ethyl-6-oxo-5,6-dihydro-1,5-naphthyridin-3-yl)methyl)-N-methoxy-1′,2′,3′,6′-tetra hydro-[3,4′-bipyridine]-6-carboxamide], the IC50 turned out to be 3.2 nM in data set [2] and 1.4 nM at PARP1 enzyme.
As for `CCc1cc2c(C#N)cc(CN3CC=C(c4ccc(C(=O)NC)nc4)CC3)cc2[nH]c1=O` [Example 42, 1′-((5-Cyano-3-ethyl-2-oxo-1,2-dihydroquinolin-7-yl)methyl)-N-methyl-1′,2′,3′,6′-tetrahydro-[3,4′-bipyridine]-6-carboxamide], the values for the IC50 (in data set [2]; on PARP1 enzyme) were 3 nM and 1.3 nM, respectively.
Turning to `CCc1cc2ncc(CN3CCN(c4ccc5c(c4)C(=O)N(C)C5=O)CC3)cc2[nH]c1=O` [Example 79, 5-(4-((7-Ethyl-6-oxo-5,6-dihydro-1,5-naphthyridin-3-yl)methyl)piperazin-1-yl)-2-methylisoindoline-1,3-dione], the IC50 at PARP1 enzyme turned out to be 3.3 nM.
The same measure, in the same setting: in the case of `CCc1cc2ncc(CN3CCN(c4ccc5c(C(=O)NC)ncn5c4)CC3)cc2[nH]c1=O` [Example 80, 6-(4-((7-Ethyl-6-oxo-5,6-dihydro-1,5-naphthyridin-3-yl)methyl)piperazin-1-yl)-N-methylimidazo[1,5-a]pyridine-1-carboxamide] it was 5 nM.
The same measure, in the same setting: in the case of `CCC1Oc2ncc(CN3CC=C(c4ccc(C(=O)NC)nc4Cl)CC3)cc2NC1=O` (centres unmarked) [Example 85, 2-Chloro-1′-((3-ethyl-2-oxo-2,3-dihydro-1H-pyrido[2,3-b][1,4]oxazin-7-yl)methyl)-N-methyl-1′,2′,3′,6′-tetrahydro-[3,4′-bipyridine]-6-carboxamide] it was 3.5 nM; in that of `CCC1Oc2ncc(CN3CC=C(c4ccc(C(=O)NC)nc4C)CC3)cc2NC1=O` (centres unmarked) [Example 86, 1′-((3-Ethyl-2-oxo-2,3-dihydro-1H-pyrido[2,3-b][1,4]oxazin-7-yl)methyl)-N,2-dimethyl-1′,2′,3′,6′-tetrahydro-[3,4′-bipyridine]-6-carboxamide], 5.1 nM.
Same read-out and setting: in the case of `CCC1Oc2ccc(CN3CC=C(c4ccc(C(=O)NC)nc4Cl)CC3)cc2NC1=O` (centres unmarked) [Example 87, 2-Chloro-1′-((2-ethyl-3-oxo-3,4-dihydro-2H-benzo[b][1,4]oxazin-6-yl)methyl)-N-methyl-1′,2′,3′,6′-tetrahydro-[3,4′-bipyridine]-6-carboxamide] it was 4.9 nM; in that of `CCC1Oc2ccc(CN3CC=C(c4ccc(C(=O)NC)nc4C)CC3)cc2NC1=O` (centres unmarked) [Example 88, 1′-((2-Ethyl-3-oxo-3,4-dihydro-2H-benzo[b][1,4]oxazin-6-yl)methyl)-N,2-dimethyl-1′,2′,3′,6′-tetrahydro-[3,4′-bipyridine]-6-carboxamide], 5 nM; in that of `CCC1Oc2ncc(CN3CC=C(c4ccc(C(=O)NC)nc4F)CC3)cc2NC1=O` (centres unmarked) [Example 90, 1′-((3-Ethyl-2-oxo-2,3-dihydro-1H-pyrido[2,3-b][1,4]oxazin-7-yl)methyl)-2-fluoro-N-methyl-1′,2′,3′,6′-tetrahydro-[3,4′-bipyridine]-6-carboxamide], 2.7 nM.
For the compound `CCn1c(=O)[nH]c2cc(CN3CC=C(c4ccc(C(=O)NC)nc4F)CC3)ccc2c1=O` [Example 91, 1′-((3-Ethyl-2,4-dioxo-1,2,3,4-tetrahydroquinazolin-7-yl)methyl)-2-fluoro-N-methyl-1′,2′,3′,6′-tetrahydro-[3,4′-bipyridine]-6-carboxamide], the IC50 at PARP1 enzyme is 3 nM.
Regarding `CCc1cc2ncc(CN3CCN(c4cnc5c(NC)ncc(F)c5c4)CC3)cc2[nH]c1=O` [Example 94, 3-Ethyl-7-((4-(5-fluoro-8-(methylamino)-1,7-naphthyridin-3-yl)piperazin-1-yl)methyl)-1,5-naphthyridin-2(1H)-one], the IC50 in data set [2] is 8.4 nM.
Same read-out and setting: in the case of `[2H]C([2H])([2H])Nc1nccc2cc(N3CCN(Cc4cnc5cc(CC)c(=O)[nH]c5c4)CC3)cnc12` [Example 98, 3-Ethyl-7-((4-(8-((methyl-d3)amino)-1,7-naphthyridin-3-yl)piperazin-1-yl)methyl)-1,5-naphthyridin-2(1H)-one] it was 1.7 nM.
Same read-out and setting: the value for `CCc1cc2ncc(CN3CC=C(c4cnc5c(NC)nccc5c4)CC3)cc2[nH]c1=O` [Example 102, 3-Ethyl-7-((4-(8-(methylamino)-1,7-naphthyridin-3-yl)-3,6-dihydropyridin-1(2H)-yl)methyl)-1,5-naphthyridin-2(1H)-one] was 5.2 nM.
